Test results as given in PubChem BioAssay (NCI).
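Exposure lasted 48 hours, with cells grown in 96-well plates and compounds tested at five concentrations. Abbreviation: GI50, concentration required for 50% inhibition of growth. At the TGI there is no net growth.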

Key:
Assay in all cases: DTP human tumour cell line panel, 48 h
TK-10 renal = system: TK-10 renal
HOP-92 NSCLC = system: HOP-92 NSCLC
M14 melanoma = system: M14 melanoma
SK-MEL-5 melanoma = system: SK-MEL-5 melanoma
SK-OV-3 ovarian = system: SK-OV-3 ovarian
786-0 renal = system: 786-0 renal
HT29 colon = system: HT29 colon
SF-268 CNS = system: SF-268 CNS
SW-620 colon = system: SW-620 colon
NCI-H522 lung = system: NCI-H522 lung
BT-549 breast = system: BT-549 breast
SK-MEL-2 melanoma = system: SK-MEL-2 melanoma
HOP-62 NSCLC = system: HOP-62 NSCLC
SR leukemia = system: SR leukemia
NCI/ADR-RES ovarian = system: NCI/ADR-RES ovarian
IGROV1 ovarian = system: IGROV1 ovarian
EKVX NSCLC = system: EKVX NSCLC
UACC-62 melanoma = system: UACC-62 melanoma
RPMI-8226 leukemia = system: RPMI-8226 leukemia
SK-MEL-28 melanoma = system: SK-MEL-28 melanoma
K-562 leukemia = system: K-562 leukemia
T-47D breast = system: T-47D breast
HCT-15 colon = system: HCT-15 colon
OVCAR-8 ovarian = system: OVCAR-8 ovarian
HS 578T breast = system: HS 578T breast
OVCAR-5 ovarian = system: OVCAR-5 ovarian
MDA-MB-435 = system: MDA-MB-435
PC-3 prostate = system: PC-3 prostate
HCT-116 colon = system: HCT-116 colon
HCC-2998 colon = system: HCC-2998 colon
ACHN renal = system: ACHN renal
OVCAR-3 ovarian = system: OVCAR-3 ovarian
HL-60(TB) leukemia = system: HL-60(TB) leukemia
SF-295 CNS = system: SF-295 CNS
NCI-H23 lung = system: NCI-H23 lung
SNB-75 CNS = system: SNB-75 CNS
SN12C renal = system: SN12C renal
MDA-MB-231 breast = system: MDA-MB-231 breast
MALME-3M melanoma = system: MALME-3M melanoma
A498 renal = system: A498 renal
DU-145 prostate = system: DU-145 prostate
OVCAR-4 ovarian = system: OVCAR-4 ovarian
MOLT-4 leukemia = system: MOLT-4 leukemia
LOX IMVI melanoma = system: LOX IMVI melanoma
KM12 colon = system: KM12 colon
MCF7 breast = system: MCF7 breast
SNB-19 CNS = system: SNB-19 CNS
SF-539 CNS = system: SF-539 CNS
A549 NSCLC = system: A549 NSCLC
CAKI-1 renal = system: CAKI-1 renal
UO-31 renal = system: UO-31 renal
UACC-257 melanoma = system: UACC-257 melanoma
RXF 393 renal = system: RXF 393 renal
COLO 205 colon = system: COLO 205 colon
NCI-H460 lung = system: NCI-H460 lung
CCRF-CEM leukemia = system: CCRF-CEM leukemia
NCI-H226 lung = system: NCI-H226 lung
U251 CNS = system: U251 CNS

C=C(C)[C@@H]1CC[C@]2(C(N)=O)CC[C@]3(C)[C@H](CC[C@@H]4[C@@]5(C)C/C(=C/c6cccnc6)C(=O)C(C)(C)[C@@H]5CC[C@]43C)[C@@H]12
GI50 (TK-10 renal): 24.7 µM | TGI (TK-10 renal): > 100 µM | GI50 (HOP-92 NSCLC): 3.21 µM | TGI (HOP-92 NSCLC): > 100 µM | GI50 (M14 melanoma): 8.05 µM | TGI (M14 melanoma): > 100 µM | GI50 (SK-MEL-5 melanoma): 5.42 µM | TGI (SK-MEL-5 melanoma): 17.6 µM | GI50 (SK-OV-3 ovarian): 10.6 µM | TGI (SK-OV-3 ovarian): > 100 µM | GI50 (786-0 renal): 14.7 µM | TGI (786-0 renal): > 100 µM | GI50 (HT29 colon): 6.03 µM | TGI (HT29 colon): 52.7 µM | GI50 (SF-268 CNS): 7.52 µM | TGI (SF-268 CNS): > 100 µM | GI50 (SW-620 colon): 8.82 µM | TGI (SW-620 colon): > 100 µM | GI50 (NCI-H522 lung): 6.77 µM | TGI (NCI-H522 lung): 63 µM | GI50 (BT-549 breast): 8.89 µM | TGI (BT-549 breast): > 100 µM | GI50 (SK-MEL-2 melanoma): 12.1 µM | TGI (SK-MEL-2 melanoma): 39.8 µM | GI50 (HOP-62 NSCLC): 12.4 µM | TGI (HOP-62 NSCLC): > 100 µM | GI50 (SR leukemia): 5.1 µM | TGI (SR leukemia): > 100 µM | GI50 (NCI/ADR-RES ovarian): 7.13 µM | TGI (NCI/ADR-RES ovarian): > 100 µM | GI50 (IGROV1 ovarian): 14 µM | TGI (IGROV1 ovarian): > 100 µM | GI50 (EKVX NSCLC): 4.99 µM | TGI (EKVX NSCLC): 67 µM | GI50 (UACC-62 melanoma): 5.97 µM | TGI (UACC-62 melanoma): 29.9 µM | GI50 (RPMI-8226 leukemia): 2.44 µM | TGI (RPMI-8226 leukemia): 22.1 µM | GI50 (SK-MEL-28 melanoma): 8.81 µM | TGI (SK-MEL-28 melanoma): 33.2 µM | GI50 (K-562 leukemia): 3.75 µM | TGI (K-562 leukemia): > 100 µM | GI50 (T-47D breast): 3.99 µM | TGI (T-47D breast): > 100 µM | GI50 (HCT-15 colon): 4.4 µM | TGI (HCT-15 colon): > 100 µM | GI50 (OVCAR-8 ovarian): 9.96 µM | TGI (OVCAR-8 ovarian): > 100 µM | GI50 (HS 578T breast): 17.9 µM | TGI (HS 578T breast): > 100 µM | GI50 (OVCAR-5 ovarian): 12.7 µM | TGI (OVCAR-5 ovarian): 39.7 µM | GI50 (MDA-MB-435): 5.52 µM | TGI (MDA-MB-435): > 100 µM | GI50 (PC-3 prostate): 2.36 µM | TGI (PC-3 prostate): 25.6 µM | GI50 (HCT-116 colon): 3.96 µM | TGI (HCT-116 colon): 66.4 µM | GI50 (HCC-2998 colon): 9.04 µM | TGI (HCC-2998 colon): > 100 µM | GI50 (ACHN renal): 4.96 µM | TGI (ACHN renal): > 100 µM | GI50 (OVCAR-3 ovarian): 5.91 µM | TGI (OVCAR-3 ovarian): 43.8 µM | GI50 (HL-60(TB) leukemia): 3.15 µM | TGI (HL-60(TB) leukemia): 13.9 µM | GI50 (SF-295 CNS): 3.84 µM | TGI (SF-295 CNS): 42.3 µM | GI50 (NCI-H23 lung): 14.7 µM | TGI (NCI-H23 lung): > 100 µM | GI50 (SNB-75 CNS): 8.63 µM | TGI (SNB-75 CNS): > 100 µM | GI50 (SN12C renal): 5.88 µM | TGI (SN12C renal): > 100 µM | GI50 (MDA-MB-231 breast): 15.2 µM | TGI (MDA-MB-231 breast): > 100 µM | GI50 (MALME-3M melanoma): 7.54 µM | TGI (MALME-3M melanoma): 41.7 µM | GI50 (A498 renal): 23.8 µM | TGI (A498 renal): > 100 µM | GI50 (DU-145 prostate): 8.36 µM | TGI (DU-145 prostate): > 100 µM | GI50 (OVCAR-4 ovarian): 4.28 µM | TGI (OVCAR-4 ovarian): > 100 µM | GI50 (MOLT-4 leukemia): 3.14 µM | TGI (MOLT-4 leukemia): > 100 µM | GI50 (LOX IMVI melanoma): 5.89 µM | TGI (LOX IMVI melanoma): 18.6 µM | GI50 (KM12 colon): 4.67 µM | TGI (KM12 colon): 64.1 µM | GI50 (MCF7 breast): 3.49 µM | TGI (MCF7 breast): > 100 µM | GI50 (SNB-19 CNS): 9.22 µM | TGI (SNB-19 CNS): > 100 µM | GI50 (SF-539 CNS): 10.9 µM | TGI (SF-539 CNS): 33.3 µM | GI50 (A549 NSCLC): 3.84 µM | TGI (A549 NSCLC): > 100 µM | GI50 (CAKI-1 renal): 2.56 µM | TGI (CAKI-1 renal): 21.2 µM | GI50 (UO-31 renal): 3.08 µM | TGI (UO-31 renal): > 100 µM | GI50 (UACC-257 melanoma): 7.2 µM | TGI (UACC-257 melanoma): > 100 µM | GI50 (RXF 393 renal): 3.41 µM | TGI (RXF 393 renal): 16.4 µM | GI50 (COLO 205 colon): 7.14 µM | TGI (COLO 205 colon): 27.6 µM | GI50 (NCI-H460 lung): 8.32 µM | TGI (NCI-H460 lung): 25.1 µM | GI50 (CCRF-CEM leukemia): 4.48 µM | TGI (CCRF-CEM leukemia): > 100 µM | GI50 (NCI-H226 lung): 6.9 µM | TGI (NCI-H226 lung): 60.7 µM | GI50 (U251 CNS): 7.3 µM | TGI (U251 CNS): 47.2 µM
